The assay concerns the target recombinant Mcl-1 (residues 172-327) (Homo sapiens (Human), UniProt Q07820). The assay is described as follows: Fluorescence polarization anisotropy competition assay (FITC-Bak or FITC-Bim BH3 peptide) with Mcl-1. The assay is classed as binding. The settings on record: Table 2; Ki bins given in nM; FITC-Bak or FITC-Bim peptide competition; Ki converted from IC50; read-out: Ki for Inhibition of Mcl-1. Background: Fluorescence polarisation rises when a labelled molecule tumbles more slowly, as on binding a larger partner.
recombinant Mcl-1 (residues 172-327), sequence (Q07820 172-327): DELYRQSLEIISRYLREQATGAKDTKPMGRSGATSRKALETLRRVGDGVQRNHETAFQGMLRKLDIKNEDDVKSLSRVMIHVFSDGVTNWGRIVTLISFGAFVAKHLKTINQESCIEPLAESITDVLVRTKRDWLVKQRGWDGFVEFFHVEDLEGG
Broadly, the Ki is the equilibrium dissociation constant of an inhibitor or competing ligand from its target. Regarding `Cc1cc(OCCCc2c3n(c4c(-c5c(C)nn(C)c5C)c(Cl)ccc24)CCN(c2cc(C(=O)O)c4ccn(C)c4c2)C3=O)cc(C)c1Cl` [I-162, 6-(7-chloro-10-(3-(4-chloro-3,5-dimethylphenoxy)propyl)-1-oxo-6-(1,3,5-trimethyl-1H-pyrazol-4-yl)-3,4-dihydropyrazino[1,2-a]indol-2(1H)-yl)-1-methyl-1H-indole-4-carboxylic acid], the Ki was < 50 nM.

On to `Cc1cc(OCCCc2c3n(c4c(-c5c(C)nn(C)c5C)c(Cl)ccc24)CCN(c2cc(C(=O)O)cc4c2ccn4C)C3=O)cc(C)c1Cl` [I-163, 4-(7-cholro-10-(3-(4-chloro-3,5-dimethylphenoxy)propyl)-1-oxo-6-(1,3,5-trimethyl-1H-pyrazol-4-yl)-3,4-dihydropyrazino[1,2-a]indol-2(1H)-yl)-1-methyl-1H-indole-6-carboxylic acid], for which the inhibition constant (Ki) is < 50 nM.

Consider `Cc1cc(OCCCc2c3n(c4c(-c5c(C)nn(C)c5C)c(Cl)ccc24)CCCNC3=O)cc(C)c1Cl` [I-118, 8-chloro-11-(3-(4-chloro-3,5-dimethylphenoxy)propyl)-7-(1,3,5-trimethyl-1H-pyrazol-4-yl)-2,3,4,5-tetrahydro-1H-[1,4]diazepino[1,2-a]indol-1-one], for which the Ki is < 50 nM.

Turning to `Cc1cc(OCCCc2c(C(=O)NCc3cccc(C(=O)NS(=O)(=O)c4ccc([N+](=O)[O-])cc4)c3)[nH]c3c(-c4c(C)n[nH]c4C)cccc23)cc(C)c1Cl` [I-27, 3-(3-(4-chloro-3,5-dimethylphenoxy)propyl)-7-(3,5-dimethyl-1H-pyrazol-4-yl)-N-(3-(((4-nitrophenyl)sulfonyl)carbamoyl)benzyl)-1H-indole-2-carboxamide], the inhibitory constant (Ki) was < 50 nM.

Turning to `Cc1cc(OCCCc2c3n(c4c(-c5c(C)nn(C)c5C)c(Cl)ccc24)CCCN(Cc2cc(C(=O)O)cc(N(C(=O)CC(C)C)C(=O)CC(C)C)c2)C3=O)cc(C)c1Cl` [I-329, 3-((8-chloro-11-(3-(4-chloro-3,5-dimethylphenoxy)propyl)-1-oxo-7-(1,3,5-trimethyl-1H-pyrazol-4-yl)-4,5-dihydro-1H-[1,4]diazepino[1,2-a]indol-2(3H)-yl)methyl)-5-(3-methyl-N-(3-methylbutanoyl)butanamido)benzoic acid], the Ki was < 50 nM.

On to `Cc1cc(OCCCc2c3n(c4c(-c5c(C)nn(C)c5C)c(Cl)ccc24)C(C)[C@@H](C)N(Cc2ccc(C(=O)O)cc2)C3=O)cc(C)c1Cl` (stereo partly drawn) [I-144, 4-(((3R)-7-chloro-10-(3-(4-chloro-3,5-dimethylphenoxy)propyl)-3,4-dimethyl-1-oxo-6-(1,3,5-trimethyl-1H-pyrazol-4-yl)-3,4-dihydropyrazino[1,2-a]indol-2(1H)-yl)methyl)benzoic acid], for which the inhibitory constant (Ki) was < 50 nM.

For the molecule `Cc1cc(OCCCc2c(C(=O)NC3CCN(C(=O)c4cccc(Oc5ccccc5)c4)CC3)[nH]c3ccccc23)cc(C)c1Cl` [I-67, 3-(3-(4-chloro-3,5-dimethylphenoxy)propyl)-N-(1-(3-phenoxybenzoyl)piperidin-4-yl)-1H-indole-2-carboxamide], the Ki lay in the range of 501 to 999 nM.

In the case of `Cc1cc(OCCCc2c3n(c4c(-c5c(C)nn(C)c5C)c(Cl)ccc24)CCCN(c2cccc4c2ccn4CC(=O)O)C3=O)cc(C)c1Cl` [I-348, 2-(4-(8-chloro-11-(3-(4-chloro-3,5-dimethylphenoxy)propyl)-1-oxo-7-(1,3,5-trimethyl-1H-pyrazol-4-yl)-4,5-dihydro-1H-[1,4]diazepino[1,2-a]indol-2(3H)-yl)-1H-indol-1-yl)acetic acid], the Ki is < 50 nM.

In the case of `Cc1cc(OCCCc2c3n(c4c(-c5c(C)nn(C)c5C)c(Cl)ccc24)[C@@H](C)CN(Cc2ccc(C(=O)O)cn2)C3=O)cc(C)c1Cl` [I-149, (S)-6-((7-chloro-10-(3-(4-chloro-3,5-dimethylphenoxy)propyl)-4-methyl-1-oxo-6-(1,3,5-trimethyl-1H-pyrazol-4-yl)-3,4-dihydropyrazino[1,2-a]indol-2(1H)-yl)methyl)nicotinic acid], the Ki was < 50 nM.

In the case of `Cc1cc(OCCCc2c(C(=O)N3CCc4c(C(=O)O)cccc43)[nH]c3c(-c4c(C)nn(C)c4C)cccc23)cc(C)c1Cl` [I-202, 1-(3-(3-(4-chloro-3,5-dimethylphenoxy)propyl)-7-(1,3,5-trimethyl-1H-pyrazol-4-yl)-1H-indole-2-carbonyl)indoline-4-carboxylic acid], the inhibition constant Ki fell in the range of 51 to 100 nM.

In the case of `Cc1cc(OCCCc2c(C(=O)Nc3ccnc(C(=O)O)c3)[nH]c3c(-c4c(C)nn(C)c4C)c(Cl)ccc23)cc(C)c1Cl` [I-180, 4-(6-chloro-3-(3-(4-chloro-3,5-dimethylphenoxy)propyl)-7-(1,3,5-trimethyl-1H-pyrazol-4-yl)-1H-indole-2-carboxamido)picolinic acid], the inhibitory constant (Ki) was < 50 nM.

Regarding `Cc1cc(OCCCc2c3n(c4c(-c5c(C)nn(C)c5C)c(Cl)ccc24)CCN(Cc2cccc(C(=O)O)c2)C3=O)cc(C)c1Cl` [I-141, 3-((7-chloro-10-(3-(4-chloro-3,5-dimethylphenoxy)propyl)-1-oxo-6-(1,3,5-trimethyl-1H-pyrazol-4-yl)-3,4-dihydropyrazino[1,2-a]indol-2(1H)-yl)methyl)benzoic acid], the inhibitory constant (Ki) is < 50 nM.

On to `Cc1cc(OCCCc2c3n(c4c(-c5c(C)nn(C)c5C)c(Cl)ccc24)C[C@@H](C)NC3=O)cc(C)c1Cl` [I-109, (R)-7-chloro-10-(3-(4-chloro-3,5-dimethylphenoxy)propyl)-3-methyl-6-(1,3,5-trimethyl-1H-pyrazol-4-yl)-3,4-dihydropyrazino[1,2-a]indol-1(2H)-one], for which the Ki was < 50 nM.

Turning to `Cc1cc(OCCCc2c3n(c4c(-c5c(C)nn(C)c5C)c(Cl)ccc24)CCCN(c2cc(C(=O)O)c4cnn(C)c4c2)C3=O)cc(C)c1Cl` [I-367, 6-(8-chloro-11-(3-(4-chloro-3,5-dimethylphenoxy)propyl)-1-oxo-7-(1,3,5-trimethyl-1H-pyrazol-4-yl)-4,5-dihydro-1H-[1,4]diazepino[1,2-a]indol-2(3H)-yl)-1-methyl-1H-indazole-4-carboxylic acid], the Ki is < 50 nM.

As to `Cc1cc(OCCCc2c(C(=O)Nc3cc(C(=O)O)cc(N(C)C)c3)[nH]c3c(-c4c(C)nn(C)c4C)c(Cl)ccc23)cc(C)c1Cl` [I-215, 3-(6-chloro-3-(3-(4-chloro-3,5-dimethylphenoxy)propyl)-7-(1,3,5-trimethyl-1H-pyrazol-4-yl)-1H-indole-2-carboxamido)-5-(dimethylamino)benzoic acid], the Ki is < 50 nM.

`Cc1cc(OCCCc2c3n(c4c(-c5c(C)nn(C)c5C)c(Cl)ccc24)CCCN(CCc2ccccc2C(=O)O)C3=O)cc(C)c1Cl` [I-294, 2-(2-(8-chloro-11-(3-(4-chloro-3,5-dimethylphenoxy)propyl)-1-oxo-7-(1,3,5-trimethyl-1H-pyrazol-4-yl)-4,5-dihydro-1H-[1,4]diazepino[1,2-a]indol-2(3H)-yl)ethyl)benzoic acid]: the inhibition constant Ki is < 50 nM.

On to `Cc1cc(OCCCc2c(C(=O)NCCC(=O)NS(=O)(=O)c3cccnc3)[nH]c3ccccc23)cc(C)c1Cl` [I-15, 3-(3-(4-chloro-3,5-dimethylphenoxy)propyl)-N-(3-oxo-3-(pyridine-3-sulfonamido)propyl)-1H-indole-2-carboxamide], for which the Ki lay within 101 to 299 nM.

Regarding `Cc1cc(OCCCc2c3n(c4c(-c5c(C)nn(C)c5C)c(Cl)ccc24)C(C)CN(Cc2ccc(C(=O)O)cc2)C3=O)cc(C)c1Cl` (stereo not drawn) [I-130, 4-((7-chloro-10-(3-(4-chloro-3,5-dimethylphenoxy)propyl)-4-methyl-1-oxo-6-(1,3,5-trimethyl-1H-pyrazol-4-yl)-3,4-dihydropyrazino[1,2-a]indol-2(1H)-yl)methyl)benzoic acid], the inhibition constant Ki is < 50 nM.

In the case of `Cc1cc(OCCCc2c(C(=O)NC[C@H]3CC[C@H](C(=O)O)CC3)[nH]c3c(-c4c(C)nn(C)c4C)c(Cl)ccc23)cc(C)c1Cl` [I-324, (1r,4r)-4-((6-chloro-3-(3-(4-chloro-3,5-dimethylphenoxy)propyl)-7-(1,3,5-trimethyl-1H-pyrazol-4-yl)-1H-indole-2-carboxamido)methyl)cyclohexane-1-carboxylic acid], the inhibition constant Ki is < 50 nM.

For the molecule `Cc1cc(OCCCc2c3n(c4c(-c5c(C)nn(C)c5C)c(Cl)ccc24)CCCN(Cc2cc(COc4ccccc4C(F)(F)F)cc(C(=O)O)c2)C3=O)cc(C)c1Cl` [I-312, 3-((8-chloro-11-(3-(4-chloro-3,5-dimethylphenoxy)propyl)-1-oxo-7-(1,3,5-trimethyl-1H-pyrazol-4-yl)-4,5-dihydro-1H-[1,4]diazepino[1,2-a]indol-2(3H)-yl)methyl)-5-((2-(trifluoromethyl)phenoxy)methyl)benzoic acid], the inhibition constant Ki was in the range of 51 to 100 nM.

Take `Cc1cc(OCCCc2c(C(=O)N3CCC(C(=O)O)C3)[nH]c3c(-c4c(C)nn(C)c4C)c(Cl)ccc23)cc(C)c1Cl` (stereo not drawn) [I-336, 1-(6-chloro-3-(3-(4-chloro-3,5-dimethylphenoxy)propyl)-7-(1,3,5-trimethyl-1H-pyrazol-4-yl)-1H-indole-2-carbonyl)pyrrolidine-3-carboxylic acid]: the inhibition constant Ki is < 50 nM.

Consider `Cc1cc(OCCCc2c3n(c4c(-c5c(C)nn(C)c5C)c(Cl)ccc24)CCC(C)N(Cc2ccc(C(=O)O)cn2)C3=O)cc(C)c1Cl` (stereo not drawn) [I-124, 6-((8-chloro-11-(3-(4-chloro-3,5-dimethylphenoxy)propyl)-3-methyl-1-oxo-7-(1,3,5-trimethyl-1H-pyrazol-4-yl)-4,5-dihydro-1H-[1,4]diazepino[1,2-a]indol-2(3H)-yl)methyl)nicotinic acid], for which the Ki is < 50 nM.

Consider `Cc1cc(OCCCc2c(C(=O)NCc3cc(C(=O)O)n(Cc4ccccc4)c3)[nH]c3c(-c4c(C)nn(C)c4C)cccc23)cc(C)c1Cl` [I-75, 1-benzyl-4-((3-(3-(4-chloro-3,5-dimethylphenoxy)propyl)-7-(1,3,5-trimethyl-1H-pyrazol-4-yl)-1H-indole-2-carboxamido)methyl)-1H-pyrrole-2-carboxylic acid], for which the Ki was in the range of 51 to 100 nM.

In the case of `Cc1cc(OCCCc2c3n(c4c(-c5c(C)nn(C)c5C)c(Cl)ccc24)CCCN(c2cc(C(=O)O)cc(Cl)n2)C3=O)cc(C)c1Cl` [I-230, 2-chloro-6-(8-chloro-11-(3-(4-chloro-3,5-dimethylphenoxy)propyl)-1-oxo-7-(1,3,5-trimethyl-1H-pyrazol-4-yl)-4,5-dihydro-1H-[1,4]diazepino[1,2-a]indol-2(3H)-yl)isonicotinic acid], the Ki was < 50 nM.

Values taken from patent US10533010B2, “Substituted indole Mcl-1 inhibitors” (Vanderbilt University, priority 2014, dated 2020).
